The subject of experiment [1] is MDA-MB-231. Put plainly: Antiproliferative activity against human MDA-MB-231 cells by MTT assay. In kind it is functional, cell-based. For orientation: Tetrazolium dyes change colour on reduction, which living cells bring about.
Experiment [2] relates to MCF7. Put plainly: Antiproliferative activity against human MCF7 cells by MTT assay. In kind it is functional, cell-based.

A value given as a limit tells only on which side of the number the result lay.

`C=C(C1C[C@@H]2O[C@]2(C)C(=O)[C@H]1OC(C)=O)[C@H](CC=C(C)C)OC(=O)/C(C)=C\C` (stereo partly specified): the IC50 in experiment [1] and in experiment [2] was more than 10 µM in each case. For the compound `C=C1[C@H](OC(=O)/C=C(\C)CC)C[C@@H](C(C)C)[C@@H]2/C(=C/C)C(=O)C[C@@H]12`, the IC50 in experiment [1] and in experiment [2] was more than 10 µM each time.

Consider `C/C=C1\C(=O)[C@@H](OC(=O)C(C)CC)[C@@H]2[C@@H]1[C@H](C(C)C)C[C@@H](OC(=O)/C=C(\C)CC)C21CO1` (stereo partly specified), for which the results for the IC50 in experiment [1] and in experiment [2] were 8.6 µM and 17.6 µM, respectively. `C=C1[C@H]2[C@@H](C(C(C)OC)C(=O)[C@H]2OC(=O)C(C)CC)[C@H](C(C)C)C[C@H]1OC(=O)/C=C(\C)CC` (stereo partly specified): the IC50 in experiment [1] was more than 90 µM. For the compound `C=C(C1[C@H](OC(C)=O)C(=O)[C@@]2(C)O[C@H]2[C@@H]1OC(C)=O)[C@H](CC=C(C)C)OC(=O)/C(C)=C\C` (stereo partly specified), the IC50 in experiment [1] and in experiment [2] was more than 10 µM each time. Consider `C=C1[C@@H]2C(O)C(=O)/C(=C\C)[C@H]2[C@H](C(C)C)C[C@H]1OC(=O)/C=C(\C)CC` (stereo partly specified), for which, in experiment [1], 11.3 µM corresponded to half-maximal inhibition (IC50). Consider `C=C1[C@H]2[C@@H]([C@@H]([C@H](C)OC(C)=O)C(=O)[C@H]2OC(=O)C(C)CC)[C@H](C(C)C)C[C@H]1OC(=O)/C=C(\C)CC` (stereo partly specified), for which the IC50 amounted to 7.3 µM in experiment [1] and 12.8 µM in experiment [2]. As to `C=C1[C@H](OC(=O)/C=C(\C)CC)C[C@@H](C(C)C)[C@@H]2[C@@H]([C@H](C)OC(C)=O)C(=O)C[C@@H]12`, the IC50 in experiment [1] and in experiment [2] was more than 10 µM in each case. For `C/C=C1\C(=O)[C@@H](OC(=O)C(C)CC)[C@@H]2[C@@H]1[C@H](C(C)C)C[C@@H](OC(=O)/C=C(\C)CC)C2(O)CN=[N+]=[N-]` (stereo partly specified), the IC50 in experiment [1] was determined as 5.5 µM; in experiment [2], 14.1 µM. For the compound `C=C1[C@H](OC(=O)/C=C(\C)CC)C[C@@H](C(C)C)[C@@H]2/C(=C\C)C(=O)C[C@@H]12`, the IC50 in experiment [1] and in experiment [2] was more than 10 µM throughout. `C=C1[C@@H]2C(O)C(=O)C(C(C)OC)[C@H]2[C@H](C(C)C)C[C@H]1OC(=O)/C=C(\C)CC` (stereo partly specified) returned an IC50 in experiment [1] of more than 90 µM. As for `C=C(C1C[C@@H]2O[C@]2(C)C(=O)[C@H]1OC(=O)/C(C)=C\C)[C@H](CC=C(C)C)OC(=O)/C(C)=C\C` (stereo partly specified), the IC50 in experiment [1] and in experiment [2] was more than 10 µM each time.

One may read the IC50 as the concentration needed to halve the response being measured. A high value points to weaker potency.

The record behind these values is ChEMBL document CHEMBL4665786, “Cellular Target Proteome in Breast Cancer Cells of an Oplopane Sesquiterpenoid Isolated from Tussilago farfara” (J Nat Prod, 2020).
